Consider 21 compounds from US10221171B2, “Oxathiazole thiazolium Hsp 70 inhibitors” (THE REGENTS OF THE UNIVERSITY OF CALIFORNIA, priority 2015, dated 2019).

Common to all, as to type: cell-based
The test system of assay [1] is MDA-MB-231. The assay can be described thus: MTT cell viability assay, MDA-MB-231. Conditions: Homo sapiens. As to the method: (§1) Cells were then treated with compound at various concentrations in 0.2 mL media. After the 72-hour incubation period, cells were washed in PBS (3×100 μL), and 10 μL MTT reagent was added with 100 μL fresh media. Cells were then incubated for 4 hr in a humidified chamber at 37° C. with 5% CO2. Insoluble formazan crystals were solubilized by addition of 0.1 mL detergent solution (4 hr at room temp., dark). Resulting colored solutions were then quantified at an absorbance of 570 nm.
For orientation: Tetrazolium assays rely on reduction of a dye to a coloured formazan, in cell work by metabolically active cells.

In assay [2] the test system is MEF (C57BL/6). Put plainly: MTT cell viability assay, MEF (C57BL/6). As to conditions: Mus musculus. As for the experimental part: as §1
Assay [3] has as its system MCF-7. Put plainly: MTT cell viability assay, MCF-7. As to conditions: Homo sapiens, read-out: IC50/μM MCF-7. As for the experimental part: as §1
Setting [4] is: MTT, 72-hour incubation, read-out: IC50/μM MEF (C57BL/6).
The mark [5] stands for this setting: MDA-MB-231, 72 h, 72-hour incubation.
Setting [6] is: 72 h, read-out: IC50/μM MEF (C57BL/6), MTT, 72-hour incubation.
Setting [7] is: MCF7, 72 h, MTT, 72-hour incubation.

SMILES strings stand for the structures. Read-outs that look alike come from different tables or passages of the source. Where only a bound is given, the exact number is not on record here.

Take `CCn1c(=O)/c(=C2\Sc3ccc(OC)cc3N2C)s/c1=C\c1scc[n+]1Cc1ccsc1C(=O)OC` [JG-402]: the IC50 is 0.23 ± 0.01 µM in assay [1] (MDA-MB-231, 72-hour incubation); 0.82 ± 0.06 µM in assay [2] (setting [4]); 0.45 ± 0.04 µM in assay [3] (MCF7, MTT, 72-hour incubation).

For `CCn1c(=O)/c(=C2\Sc3cc(Cl)ccc3N2C)s/c1=C\c1scc[n+]1Cc1ccccc1SC(F)(F)F` [JG-253], the IC50 in assay [1] (setting [5]) was 0.16 ± 0.01 µM; in assay [2] (setting [6]), 3.7 ± 0.2 µM; in assay [3] (setting [7]), 0.13 ± 0.01 µM.

For the compound `CCn1c(=O)/c(=C2\Sc3cc(Cl)ccc3N2C)s/c1=C\c1scc[n+]1CCc1ccc(C(F)(F)F)cc1` [JG-387], the IC50 was 0.74 ± 0.04 µM in assay [1] (MDA-MB-231, 72-hour incubation); more than 10 µM in assay [2] (setting [4]); 0.78 ± 0.09 µM in assay [3] (MCF7, MTT, 72-hour incubation).

Turning to `CCc1ccc2c(c1)S/C(=c1/s/c(=C\c3scc[n+]3Cc3ccccc3C(F)(F)F)n(CC)c1=O)N2C` [JG-298], the IC50 in assay [1] (MDA-MB-231, 72-hour incubation) came out at 0.11 ± 0.01 µM; in assay [2] (setting [4]), 0.43 ± 0.02 µM; in assay [3] (MCF7, MTT, 72-hour incubation), 0.052 ± 0.004 µM.

For the compound `CCc1ccc2c(c1)S/C(=c1/s/c(=C\c3scc[n+]3C(C)c3ccccc3)n(CC)c1=O)N2C` (stereo not drawn) [JG-320], the IC50 in assay [1] (MDA-MB-231, 72-hour incubation) was determined as 0.3 ± 0.05 µM; in assay [2] (setting [4]) it was 1.3 ± 0.04 µM; in assay [3] (MCF7, MTT, 72-hour incubation) it was 0.1 ± 0.01 µM.

On to `CCn1c(=O)/c(=C2\Sc3cc(C)ccc3N2C)s/c1=C\c1scc[n+]1Cc1ccsc1` [JG-279], for which the IC50 was found to be 0.15 ± 0.01 µM in assay [1] (MDA-MB-231, 72-hour incubation); 2.2 ± 0.1 µM in assay [2] (setting [4]); 0.14 ± 0.03 µM in assay [3] (MCF7, MTT, 72-hour incubation).

As for `CCn1c(=O)/c(=C2\Sc3ccc(C)cc3N2C)s/c1=C\c1scc[n+]1Cc1ccccc1SC(F)(F)F` [JG-363], the IC50 was 0.084 ± 0.012 µM in assay [1] (MDA-MB-231, 72-hour incubation); 2.1 ± 0.1 µM in assay [2] (setting [4]); 0.067 ± 0.005 µM in assay [3] (MCF7, MTT, 72-hour incubation).

For `CCc1ccc2c(c1)S/C(=c1/s/c(=C\c3scc[n+]3Cc3c(Cl)cccc3Cl)n(CC)c1=O)N2C` [JG-342], the IC50 in assay [1] (MDA-MB-231, 72-hour incubation) stood at 0.1 ± 0.01 µM; in assay [2] (setting [4]) it was 0.3 ± 0.1 µM; in assay [3] (setting [7]), 0.093 ± 0.007 µM.

Consider `CCn1c(=O)/c(=C2\Sc3cc(SC)ccc3N2C)s/c1=C\c1scc[n+]1Cc1ccccc1C` [JG-310], for which the IC50 stood at 0.11 ± 0.01 µM in assay [1] (MDA-MB-231, 72-hour incubation); 2.2 ± 0.2 µM in assay [2] (setting [4]); 0.23 ± 0.04 µM in assay [3] (MCF7, MTT, 72-hour incubation).

In the case of `CCn1c(=O)/c(=C2\Sc3cc(OC)ccc3N2C)s/c1=C\c1scc[n+]1Cc1ccccc1C` [JG-302], the IC50 in assay [1] (MDA-MB-231, 72-hour incubation) is 0.11 ± 0.01 µM; in assay [2] (setting [4]), 1.8 ± 0.05 µM; in assay [3] (MCF7, MTT, 72-hour incubation), 0.12 ± 0.01 µM.

For the compound `CCn1c(=O)/c(=C2\Sc3cc(C)ccc3N2C)s/c1=C\c1scc[n+]1Cc1ccccc1OC` [JG-375], the values for the IC50 in assay [1] (setting [5]), in assay [2] (setting [6]) and in assay [3] (setting [7]) were 0.082 ± 0.01 µM, 0.96 ± 0.03 µM and 0.071 ± 0.006 µM, respectively.

As for `CCn1c(=O)/c(=C2\Sc3cc(Br)ccc3N2C)s/c1=C\c1scc[n+]1Cc1ccccc1Cl` [JG-289], the IC50 amounted to 0.12 ± 0.02 µM in assay [1] (MDA-MB-231, 72-hour incubation); 0.96 ± 0.05 µM in assay [2] (setting [4]); 0.27 ± 0.02 µM in assay [3] (MCF7, MTT, 72-hour incubation).

Turning to `CCn1c(=O)/c(=C2\Sc3cc(Br)ccc3N2C)s/c1=C\c1scc[n+]1Cc1ccccc1C(F)(F)F` [JG-292], the IC50 in assay [1] (MDA-MB-231, 72-hour incubation) worked out at 0.18 ± 0.02 µM; in assay [2] (setting [4]), 2.7 ± 0.1 µM; in assay [3] (MCF7, MTT, 72-hour incubation), 0.12 ± 0.01 µM.

With `CCn1c(=O)/c(=C2\Sc3cc(C(C)C)ccc3N2C)s/c1=C\c1scc[n+]1Cc1ccc(C(F)(F)F)o1` [JG-328], the IC50 amounted to 0.23 ± 0.02 µM in assay [1] (MDA-MB-231, 72-hour incubation); 0.7 ± 0.03 µM in assay [2] (setting [4]); 0.14 ± 0.02 µM in assay [3] (MCF7, MTT, 72-hour incubation).

In the case of `CCn1c(=O)/c(=C2\Sc3cc(Cl)ccc3N2C)s/c1=C\c1scc[n+]1Cc1ccccc1C(=O)O` [JG-316], the IC50 in assay [1] (MDA-MB-231, 72-hour incubation) was more than 20 µM; in assay [2] (setting [4]), more than 10 µM; in assay [3] (MCF7, MTT, 72-hour incubation), more than 20 µM.

Consider `CCn1c(=O)/c(=C2\Sc3cc(Br)ccc3N2C)s/c1=C\c1scc[n+]1C(C)c1ccccc1` (stereo not drawn) [JG-317], for which the IC50 in assay [1] (MDA-MB-231, 72-hour incubation) stood at 0.14 ± 0.02 µM; in assay [2] (setting [4]), 2.7 ± 0.1 µM; in assay [3] (MCF7, MTT, 72-hour incubation), 0.35 ± 0.08 µM.

Turning to `CCn1c(=O)/c(=C2\Sc3cc(Cl)ccc3N2C)s/c1=C\c1scc[n+]1Cc1ccccc1C(=O)OC` [JG-331], the IC50 in assay [1] (setting [5]) came out at 0.17 ± 0.02 µM; in assay [2] (setting [6]) it was 2.9 ± 0.1 µM; in assay [3] (setting [7]), 0.17 ± 0.02 µM.

As to `CCn1c(=O)/c(=C2\Sc3cc(OC)ccc3N2C)s/c1=C\c1scc[n+]1Cc1ccsc1C(=O)OC` [JG-305], the IC50 came to 0.16 ± 0.01 µM in assay [1] (MDA-MB-231, 72-hour incubation); 1 ± 0.1 µM in assay [2] (setting [4]); 0.12 ± 0.01 µM in assay [3] (MCF7, MTT, 72-hour incubation).

Turning to `CCn1c(=O)/c(=C2\Sc3cc(SC)ccc3N2C)s/c1=C\c1scc[n+]1Cc1c(Cl)cccc1Cl` [JG-354], the IC50 amounted to 0.096 ± 0.01 µM in assay [1] (MDA-MB-231, 72-hour incubation); 1.1 ± 0.1 µM in assay [2] (setting [4]); 0.13 ± 0.01 µM in assay [3] (MCF7, MTT, 72-hour incubation).

As for `CCn1c(=O)/c(=C2\Sc3cc(OC)ccc3N2C)s/c1=C\c1scc[n+]1Cc1ccccc1OC(F)(F)F` [JG-303], the IC50 in assay [1] (setting [5]) worked out at 0.053 ± 0.005 µM; in assay [2] (setting [4]) it was 0.7 ± 0.01 µM; in assay [3] (MCF7, 72 h) it was 0.07 ± 0.003 µM.

As to `CCn1c(=O)/c(=C2\Sc3cc(Br)ccc3N2C)s/c1=C\c1scc[n+]1Cc1ccsc1` [JG-278], the IC50 in assay [1] (MDA-MB-231, 72-hour incubation) is 0.23 ± 0.04 µM; in assay [2] (setting [4]), 3.4 ± 0.2 µM; in assay [3] (MCF7, MTT, 72-hour incubation), 0.39 ± 0.06 µM.
